US20240199623A1 (ILDONG PHARMACEUTICAL CO., LTD., priority 2020, published 2024)

Target: human wild type-CFTR (Homo sapiens, UniProt P13569)
Test: Cell-based YFP assay
Design: expressed in transfected cells; host or cells: CHO-K1 (Chinese hamster ovary)
Settings: CHO-K1 cells expressing human wild type-CFTR and YFP-H148Q/I152L; forskolin 20 μM = 100% activity; read-out: Cell-based YFP Assay (EC50) Concentration Range
Method: Forskolin (Tocris cat. #1099), Dimethyl sulfoxide (Sigma cat. #D4540), FLUO star Omega microplate reader (BMG Labtech, Ortenberg, Germany), MARS Data Analysis Software (BMG Labtech), GraphPad Prism 5 (GraphPad Software, Inc.) Chinese hamster ovary (CHO-K1) cells expressing human wild type-CFTR and halide sensor YFP-H148Q/I152L were constructed and grown in Dulbecco's modified Eagle's medium (DMEM) supplemented with 10% FBS, 2 mM glutamine, 100 units/ml penicillin and 100 μg/ml streptomycin. Chinese hamster ovary (CHO-K1) cells expressing human wild type-CFTR and halide sensor YFP-H148Q/I152L were seeded in 96-well microplate with 2×10^4 cells/well and incubated in 37° C., 48 hours. Then, each well was washed 3 times with PBS and 100 μL PBS was added in each well. […] YFP fluorescence signal affected by I^− ion influx through CFTR channel was measured in 37° C., FLUO star Omega microplate reader according to the following steps: • i) basal 2 seconds; • ii) 140 mM I^− solution 100 μL addition to each well; • iii) YFP fluorescence signal measurement start after 6 seconds; and • iv) following 14 seconds signal detection in every 0.4 seconds periods. […] Experiments were performed in triplicates and the data was averaged. EC50 values were calculated with MARS Data Analysis Software (BMG Labtech) and GraphPad Prism 5.

human wild type-CFTR, sequence (P13569 whole entry): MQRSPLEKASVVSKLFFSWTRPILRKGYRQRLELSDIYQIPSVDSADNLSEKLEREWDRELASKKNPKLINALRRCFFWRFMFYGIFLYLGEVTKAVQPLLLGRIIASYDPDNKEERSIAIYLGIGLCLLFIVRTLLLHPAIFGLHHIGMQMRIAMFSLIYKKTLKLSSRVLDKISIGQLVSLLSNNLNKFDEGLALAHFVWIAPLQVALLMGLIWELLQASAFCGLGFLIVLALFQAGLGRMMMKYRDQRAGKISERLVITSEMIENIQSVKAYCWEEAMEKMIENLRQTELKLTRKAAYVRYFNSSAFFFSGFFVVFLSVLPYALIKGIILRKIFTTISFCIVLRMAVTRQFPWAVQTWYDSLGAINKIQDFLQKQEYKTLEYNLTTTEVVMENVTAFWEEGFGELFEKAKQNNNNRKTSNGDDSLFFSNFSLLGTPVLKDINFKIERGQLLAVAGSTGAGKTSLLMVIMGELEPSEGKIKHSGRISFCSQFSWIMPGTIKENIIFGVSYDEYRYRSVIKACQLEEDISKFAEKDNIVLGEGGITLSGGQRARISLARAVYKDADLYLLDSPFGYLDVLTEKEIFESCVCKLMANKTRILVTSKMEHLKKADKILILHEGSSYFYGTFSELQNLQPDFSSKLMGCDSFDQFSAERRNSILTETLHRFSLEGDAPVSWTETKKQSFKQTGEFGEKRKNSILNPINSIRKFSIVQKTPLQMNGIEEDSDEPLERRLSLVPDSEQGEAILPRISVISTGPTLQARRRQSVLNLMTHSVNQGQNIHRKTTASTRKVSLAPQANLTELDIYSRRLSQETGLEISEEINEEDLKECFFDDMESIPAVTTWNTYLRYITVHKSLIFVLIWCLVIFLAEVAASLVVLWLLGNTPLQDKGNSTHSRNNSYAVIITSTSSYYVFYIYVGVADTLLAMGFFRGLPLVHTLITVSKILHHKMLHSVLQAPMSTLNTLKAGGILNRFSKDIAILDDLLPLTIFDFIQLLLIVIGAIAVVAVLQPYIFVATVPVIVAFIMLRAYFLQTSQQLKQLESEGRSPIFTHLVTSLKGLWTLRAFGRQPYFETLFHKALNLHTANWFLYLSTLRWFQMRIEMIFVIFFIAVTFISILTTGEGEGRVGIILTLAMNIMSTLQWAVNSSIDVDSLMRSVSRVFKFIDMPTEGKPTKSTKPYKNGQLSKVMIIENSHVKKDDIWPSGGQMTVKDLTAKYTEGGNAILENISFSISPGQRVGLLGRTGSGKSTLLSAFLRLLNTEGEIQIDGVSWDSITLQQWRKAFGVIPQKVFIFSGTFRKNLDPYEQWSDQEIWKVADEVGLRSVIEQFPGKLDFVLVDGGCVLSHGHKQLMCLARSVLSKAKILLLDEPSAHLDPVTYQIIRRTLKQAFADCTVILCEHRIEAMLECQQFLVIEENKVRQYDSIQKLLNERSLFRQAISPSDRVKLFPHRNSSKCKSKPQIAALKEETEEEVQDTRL

EC50 [nM]	Structure (SMILES)
≥ 2000	COc1ccc(-c2ccnc3cc(C(=O)Nc4ccc(C(=O)N[C@@H](CCSC)C(=O)O)cc4)nn23)cc1OC [Compound 87, (4-(7-(3,4-dimethoxyphenyl)pyrazolo[1,5-a]pyrimidine-2-carboxamido)benzoyl)-L-methionine]
≥ 2000	COc1ccc(-c2ccnc3cc(C(=O)Nc4ccc(C(=O)N[C@@H](CC(=O)O)C(=O)O)cc4)nn23)cc1OC [Compound 88, (4-(7-(3,4-dimethoxyphenyl)pyrazolo[1,5-a]pyrimidine-2-carboxamido)benzoyl)-L-aspartic acid]
≥ 2000	COc1ccc(-c2ccnc3cc(C(=O)Nc4ccc(C(=O)N[C@H](C)C(=O)O)cc4)nn23)cc1OC [Compound 89, (4-(7-(3,4-dimethoxyphenyl)pyrazolo[1,5-a]pyrimidine-2-carboxamido)benzoyl)-D-alanine]
200 to 2000	COC(=O)c1ccc(NC(=O)Nc2cc3nccc(-c4ccc(OC)c(OC)c4)n3n2)cc1 [Compound 93, methyl 4-(3-(7-(3,4-dimethoxyphenyl)pyrazolo[1,5-a]pyrimidin-2-yl)ureido)benzoate]
≥ 2000	COc1ccc(-c2ccnc3cc(C(=O)NCc4ccc(C(=O)O)cc4)nn23)cc1OC [Compound 94, 4-((7-(3,4-dimethoxyphenyl)pyrazolo[1,5-a]pyrimidine-2-carboxamido)methyl) benzoic acid]
≥ 2000	COc1ccc(-c2ccnc3cc(NC(=O)Nc4ccc(C(=O)O)cc4)nn23)cc1OC [Compound 107, 4-(3-(7-(3,4-dimethoxyphenyl)pyrazolo[1,5-a]pyrimidin-2-yl)ureido)benzoic acid]
≥ 2000	COc1ccc(-c2ccnc3cc(C(=O)Nc4ccc(C(=O)NCCN(C)C)cc4)nn23)cc1OC [Compound 118, 7-(3,4-dimethoxyphenyl)-N-(4-((2-(dimethylamino)ethyl)carbamoyl)phenyl) pyrazolo[1,5-a]pyrimidine-2-carboxamide]
200 to 2000	COc1ccc(-c2ccnc3cc(C(=O)Nc4ccc(C(=O)NCCN5CCCCC5)cc4)nn23)cc1OC [Compound 119, 7-(3,4-dimethoxyphenyl)-N-(4-((2-(piperidin-1-yl)ethyl)carbamoyl)phenyl) pyrazolo[1,5-a]pyrimidine-2-carboxamide]
< 200	COc1ccc(-c2ccnc3cc(C(=O)Nc4ccc(C(=O)NCCN(C(C)C)C(C)C)cc4)nn23)cc1OC [Compound 120, N-(4-((2-(diisopropylamino)ethyl)carbamoyl)phenyl)-7-(3,4-dimethoxyphenyl) pyrazolo[1,5-a]pyrimidine-2-carboxamide]

Continued, compound first:

Structure (SMILES)	EC50 [nM]
COc1ccc(-c2ccnc3cc(C(=O)N4CCN(C(=O)CO)CC4)nn23)cc1OC [Compound 90, 1-(4-(7-(3,4-dimethoxyphenyl)pyrazolo[1,5-a]pyrimidine-2-carbonyl)piperazin-1-yl)-2-hydroxyethan-1-one]	≥ 2000
COc1ccc(-c2ccnc3cc(C(=O)NC4CCN(C(=O)CO)CC4)nn23)cc1OC [Compound 91, 7-(3,4-dimethoxyphenyl)-N-(1-(2-hydroxyacetyl)piperidin-4-yl)pyrazolo[1,5-a]pyrimidine-2-carboxamide]	≥ 2000
COc1ccc(-c2ccnc3cc(C(=O)NC45CC(C(N)=O)(C4)C5)nn23)cc1OC [Compound 95, N-(3-carbamoylbicyclo [1.1.1]pentan-1-yl)-7-(3,4-dimethoxyphenyl) pyrazolo[1,5-a]pyrimidine-2-carboxamide]	≥ 2000
COc1ccc(-c2ccnc3cc(C(=O)NC45CC(C(=O)N6CCNCC6)(C4)C5)nn23)cc1OC [Compound 98, 7-(3,4-dimethoxyphenyl)-N-(3-(piperazine-1-carbonyl)bicyclo [1.1.1]pentan-1-yl)pyrazolo[1,5-a] pyrimidine-2-carboxamide]	≥ 2000
COc1ccc(-c2ccnc3cc(C(=O)NN4CCOCC4)nn23)cc1OC [Compound 99, 7-(3,4-dimethoxyphenyl)-N-morpholinopyrazolo[1,5-a] pyrimidine-2-carboxamide]	≥ 2000
COc1ccc(-c2ccnc3cc(C(=O)N4CCN(C)CC4)nn23)cc1OC [Compound 101, (7-(3,4-dimethoxyphenyl)pyrazolo[1,5-a]pyrimidin-2-yl)(4-methylpiperazin-1-yl)methanone]	≥ 2000
COc1ccc(-c2ccnc3cc(C(=O)N[C@H]4CC[C@@H](O)CC4)nn23)cc1OC [Compound 102, 7-(3,4-dimethoxyphenyl)-N-((1S,4S)-4-hydroxycyclohexyl) pyrazolo[1,5-a]pyrimidine-2-carboxamide]	≥ 2000
COc1ccc(-c2ccnc3cc(C(=O)NC4CCN(C[C@@H](O)CO)CC4)nn23)cc1OC [Compound 103, (R)-N-(1-(2,3-dihydroxypropyl)piperidin-4-yl)-7-(3,4-dimethoxyphenyl) pyrazolo[1,5-a]pyrimidine-2-carboxamide]	≥ 2000
COC(=O)c1ccc(NC(=O)c2cc3nccc(-c4ccc(OC)c(OC)c4)n3n2)c(Cl)c1 [Compound 104, methyl 3-chloro-4-(7-(3,4-dimethoxyphenyl)pyrazolo [1,5-a]pyrimidine-2-carboxamido)benzoate]	≥ 2000
COc1ccc(-c2ccnc3cc(C(=O)NC(=Cc4ccccc4)C(=O)O)nn23)cc1OC [Compound 108, 2-(7-(3,4-dimethoxyphenyl)pyrazolo[1,5-a]pyrimidine-2-carboxamido)-3-phenylacrylic acid]	≥ 2000
COc1ccc(-c2ccnc3cc(C(=O)N4CCN(C(=O)C5CC5)CC4)nn23)cc1OC [Compound 110, (4-(cyclopropanecarbonyl)piperazin-1-yl)(7-(3,4-dimethoxyphenyl)pyrazolo[1,5-a]pyrimidin-2-yl)methanone]	200 to 2000
COc1ccc(-c2ccnc3cc(C(=O)N4CCN(C(=O)OC(C)(C)C)[C@@H](C)C4)nn23)cc1OC [Compound 112, tert-butyl (S)-4-(7-(3,4-dimethoxyphenyl)pyrazolo[1,5-a]pyrimidine-2-carbonyl)-2-methylpiperazine-1-carboxylate]	< 200
COc1ccc(-c2ccnc3cc(C(=O)N4CCN(C(=O)OC(C)(C)C)C(C)(C)C4)nn23)cc1OC [Compound 113, tert-butyl 4-(7-(3,4-dimethoxyphenyl)pyrazolo [1,5-a]pyrimidine-2-carbonyl)-2,2-dimethylpiperazine-1-carboxylate]	< 200
COc1ccc(-c2ccnc3cc(C(=O)N4CC[C@@H](NC(=O)OC(C)(C)C)C4)nn23)cc1OC [Compound 115, tert-butyl (R)-(1-(7-(3,4-dimethoxyphenyl)pyrazolo [1,5-a]pyrimidine-2-carbonyl)pyrrolidin-3-yl)carbamate]	200 to 2000
COc1ccc(-c2ccnc3cc(C(=O)N4CC(NC(=O)OC(C)(C)C)C4)nn23)cc1OC [Compound 116, tert-butyl (1-(7-(3,4-dimethoxyphenyl)pyrazolo [1,5-a]pyrimidine-2-carbonyl)azetidin-3-yl) carbamate]	200 to 2000
COc1ccc(-c2ccnc3cc(C(=O)N4CCC(=O)C4)nn23)cc1OC [Compound 117, 1-(7-(3,4-dimethoxyphenyl)pyrazolo[1,5-a]pyrimidine-2-carbonyl) pyrrolidin-3-one]	≥ 2000
COc1ccc(-c2ccnc3cc(C(=O)Nc4ccc(C)cn4)nn23)cc1OC [Compound 122, 7-(3,4-dimethoxyphenyl)-N-(5-methylpyridin-2-yl)pyrazolo[1,5-a] pyrimdine-2-carboxamide]	< 200
